Structures can show the parent of a compound that is named as a salt.
Test system: 5-HT4 receptor
Experiment: Guinea pig colon 5-HT4 receptor antagonist activity (longitudinal muscle-myenteric plexus, 5-HT-evoked contraction)
Type: cell-based
Conditions: guinea-pig distal colon longitudinal muscle-myenteric plexus; contraction evoked by 5-HT
Experimental: 5-HT4 RECEPTOR ANTAGONIST ACTIVITY
Male guinea-pigs, weighing 250-400 g are used. Longitudinal muscle-myenteric plexus preparations, approximately 3 cm long, are obtained from the distal colon region. These are suspended under a 0.5 g load in isolated tissue baths containing Krebs solution bubbled with 5% CO2 in O2 and maintained at 37° C. In all experiments, the Krebs solution also contains methiothepin 10^-7 M and granisetron 10^-6 M to block effects at 5-HT1, 5-HT2 and 5-HT3 receptors.
After construction of a simple concentration-response curve with 5-HT, using 30s contact times and a 15 min dosing cycle, a concentration of 5-HT is selected so as to obtain a contraction of the muscle approximately 40-70% maximum(10^-9 M approx). The tissue is then alternately dosed every 15 min with this concentration of 5-HT and then with an approximately equi-effective concentration of the nicotine receptor stimulant, dimethylphenylpiperazinium (DMPP). After obtaining consistent responses to both 5-HT and DMPP, increasing concentrations of a putative 5-HT4 receptor antagonist are then added to the bathing solution. The effects of this compound are then determined as a percentage reduction of the contractions evoked by 5-HT or by DMPP. […] A compound which reduces the response to 5-HT but not to DMPP is believed to act as a 5-HT4 receptor antagonist.

5-HT4 receptor antagonist activity (in words): particularly good activity
Compound: CCCCN1CCC(COC(=O)c2cccc3cccnc23)CC1 [Example 1-2, (1-Butyl-4-piperidinylmethyl)quinolinyl-8-carboxylate hydrochloride]
